From US20090298793A1, “Acylgycerophospholipids for treating symptoms concomitant with cancer” (KTB TUMORFORSCHUNGSGESELLSCHAFT MBH, priority 2005, published 2009)

What was measured:
[1] = test system: tumor cells; conditions: Nagami et al., Bioorganic & Medicinal Chemistry Letters 16: 782-785 (2006); cited from earlier work
[2] = test system: human kidney cell carcinoma RXF 486; assay: Course of weight of naked mice bearing cachexia-inducing human kidney cell carcinoma RXF 486; assay type: in vivo; conditions: 33 mg/kg DPPC p.o., days 0-4, 7-11, 14, 17, 18; liposomal dispersion in saline; n=3; p <0.001
Excerpt: Tumors from the human kidney cell carcinoma RXF 486 have a string cachexia-inducing effect.
Female athymic BALB/c nude mice (nu/nu) (Charles River, Frederick, Md.) at the age of 8 to 10 weeks were employed. […] They were allowed water and rodent food (Altromin, Lage, Germany) ad libitum.
Fragments of 3-5 mm (in diameter) of the human kidney cell carcinoma RXF 486 were subcutaneously grafted between the animals' front and rear flanks. The therapy experiments were begun when the tumors had reached a size of 30-40 mm^3.
For the therapy, synthetic PL (dipalmitoylphosphatidylcholine, DPPC; Sygena, Liestal, Switzerland) was employed. It was dispersed in 0.9% (w/v) saline in a concentration of 33 mg/ml (ultrasonic dispersion in 50 ml Falcon tube) to provide a heterogeneous liposomal dispersion. For the oral administration (p.o.), the dispersion was adjusted to 3.3 mg/ml with saline.
On experiment days 0-4, 7-11, 14, 17 and 18, the animals were treated with 33 mg each per kg of body weight of DPPC p.o. by a stomach tube (application volume: 10 ml/kg). The control animals only obtained saline. The weight of the animals was determined on days 0, 2, 4, 7, 9, 11, 14, 18, 21, 25, 26 and 29 and is shown in FIG. 1 in % of the weight on day 0.

SMILES	apoptosis and necrosis in tumor cells [1]	weight loss as compared to an untreated control group [2]
CCCCCCCCCCCCCCCC(=O)OC[C@H](COP(=O)([O-])OCC[N+](C)(C)C)OC(=O)CCCCCCCCCCCCCCC [DPPC, dipalmitoylphosphatidylcholine]	does not show such an effect	virtually stopped
CCCCCCCCCCCCCC(=O)OC[C@H](COP(=O)([O-])OCC[N+](C)(C)C)OC(=O)CCCCCCCCCCCCC [dimyristoyl-PC, reference compound]	produces apoptosis and necrosis	
